Measured values reported in ChEMBL document CHEMBL1201862, “PubChem BioAssay data set” (2004).
Where a name gives a salt, the structure may show the parent alone.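 Each compound was tested at five concentrations against cells in 96-well plates for 48 hours. GI50: concentration for 50% inhibition of growth.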 The source made the active and inactive calls. No stated cut-off is given here; in the data, active = GI50 up to about 1.1 µM and inactive = higher.

Columns and labels:
Experiment in all cases: NCI tumour cell line growth inhibition, 48 h
HCC 2998 = tested on: HCC 2998
786-0 = tested on: 786-0
NCI-H522 = tested on: NCI-H522
SK-MEL-28 = tested on: SK-MEL-28
SW-620 = tested on: SW-620
OVCAR-5 = tested on: OVCAR-5
IGROV-1 = tested on: IGROV-1
NCI-H226 = tested on: NCI-H226
LOX IMVI = tested on: LOX IMVI
SF-268 = tested on: SF-268
U-251 = tested on: U-251
DMS-273 = tested on: DMS-273
MOLT-4 = tested on: MOLT-4
SK-OV-3 = tested on: SK-OV-3
SNB-78 = tested on: SNB-78
TK-10 = tested on: TK-10
DLD-1 = tested on: DLD-1
CCRF-CEM = tested on: CCRF-CEM
Hs-578T = tested on: Hs-578T
MDA-N = tested on: MDA-N

SMILES	GI50 (HCC 2998)	GI50 (786-0)	GI50 (NCI-H522)	GI50 (SK-MEL-28)	GI50 (SW-620)	GI50 (OVCAR-5)	GI50 (IGROV-1)	GI50 (NCI-H226)	GI50 (LOX IMVI)	GI50 (SF-268)	GI50 (U-251)	GI50 (DMS-273)	GI50 (MOLT-4)	GI50 (SK-OV-3)	GI50 (SNB-78)	GI50 (TK-10)	GI50 (DLD-1)	GI50 (CCRF-CEM)	GI50 (Hs-578T)	GI50 (MDA-N)
O=C(CC(=O)N1N=C(c2ccccc2)C(/N=N/c2ccccc2Cl)C1=O)Nc1ccccc1Cl (stereo not given)	> 100 µM (inactive)	20.8 µM (inactive)	28.9 µM (inactive)	44.3 µM (inactive)	29.9 µM (inactive)	> 100 µM (inactive)	63.1 µM (inactive)	42.7 µM (inactive)	31.3 µM (inactive)	31.5 µM (inactive)	32.1 µM (inactive)	37.5 µM (inactive)	28.6 µM (inactive)	28.6 µM (inactive)	40.9 µM (inactive)	15.4 µM (inactive)	23 µM (inactive)			
O=C(c1ccccc1)c1c(CC(O)c2ccncc2)n(C(=O)c2ccccc2)c2ccccc12 (stereo not given)	17.1 µM (inactive)	17 µM (inactive)	13.2 µM (inactive)	17.7 µM (inactive)	18.7 µM (inactive)	15.8 µM (inactive)	16.7 µM (inactive)	14.7 µM (inactive)		20.7 µM (inactive)	17.7 µM (inactive)	17.9 µM (inactive)	18.2 µM (inactive)			28.6 µM (inactive)	26.2 µM (inactive)	25.1 µM (inactive)		
CC(C)(C)C(=O)OCC1CCC(n2cnc3c(=O)[nH]c(N)nc32)O1 (stereo not given)	> 100 µM (inactive)	> 100 µM (inactive)		> 100 µM (inactive)	> 100 µM (inactive)	> 100 µM (inactive)	> 100 µM (inactive)	> 100 µM (inactive)	> 100 µM (inactive)	> 100 µM (inactive)	> 100 µM (inactive)	> 100 µM (inactive)		> 100 µM (inactive)	> 100 µM (inactive)	> 100 µM (inactive)		> 100 µM (inactive)		
CC[C@@]1(O)C(=O)OCc2c1cc1n(c2=O)Cc2cc3c(CN(C)C)c(O)ccc3nc2-1 [TOPOTECAN HYDROCHLORIDE]			0.0306 µM (active)	0.239 µM (active)		0.121 µM (active)	0.141 µM (active)	0.0225 µM (active)		0.0147 µM (active)		0.0191 µM (active)	0.0125 µM (active)		4.71 µM (inactive)			0.0125 µM (active)	1.1 µM (active)	
CCCCN(CCCC)C(=O)C(=O)C(C(=O)c1ccc(OC)cc1)c1ccc(OC)cc1 (stereo not given)	> 100 µM (inactive)	> 100 µM (inactive)		> 100 µM (inactive)	> 100 µM (inactive)	> 100 µM (inactive)	> 100 µM (inactive)	> 100 µM (inactive)	> 100 µM (inactive)	> 100 µM (inactive)	> 100 µM (inactive)		> 100 µM (inactive)	> 100 µM (inactive)	> 100 µM (inactive)	> 100 µM (inactive)	> 100 µM (inactive)	> 100 µM (inactive)		
Cc1cc2ncn(C3CCCO3)c2cc1C (stereo not given)	> 100 µM (inactive)	> 100 µM (inactive)	12.1 µM (inactive)	> 100 µM (inactive)	> 100 µM (inactive)	> 100 µM (inactive)	> 100 µM (inactive)	> 100 µM (inactive)	> 100 µM (inactive)	> 100 µM (inactive)	> 100 µM (inactive)		> 100 µM (inactive)	> 100 µM (inactive)		> 100 µM (inactive)		> 100 µM (inactive)	> 100 µM (inactive)	> 100 µM (inactive)
Cc1cn(C2CC(O)C(Cn3nncc3Cn3cnc4c(N)ncnc43)O2)c(=O)[nH]c1=O (stereo not given)	> 100 µM (inactive)	> 100 µM (inactive)	> 100 µM (inactive)	> 100 µM (inactive)	> 100 µM (inactive)	> 100 µM (inactive)	> 100 µM (inactive)	> 100 µM (inactive)	> 100 µM (inactive)	> 100 µM (inactive)	> 100 µM (inactive)		> 100 µM (inactive)	> 100 µM (inactive)		> 100 µM (inactive)		> 100 µM (inactive)	> 100 µM (inactive)	> 100 µM (inactive)
CN1CCCS/C1=C1/SC(=S)N(c2ccccc2)C1=O		> 100 µM (inactive)	> 100 µM (inactive)	> 100 µM (inactive)	> 100 µM (inactive)	> 100 µM (inactive)	> 100 µM (inactive)	> 100 µM (inactive)	> 100 µM (inactive)	> 100 µM (inactive)	> 100 µM (inactive)	> 100 µM (inactive)	> 100 µM (inactive)	> 100 µM (inactive)	> 100 µM (inactive)	> 100 µM (inactive)	> 100 µM (inactive)	> 100 µM (inactive)		
